Experimental data taken from patent publication EP4324928A1, “SYNTHETIC REAGENTS FOR ENZYME-CATALYSED ALKYLATION” (priority 2022, dated 2024).
Changes are numbered by the printed parent chain. Counter-ions that a name gives are not always drawn.

Experiments:
TPMT acl = experiment: TPMT-catalyzed SAH methylation using dimethyl sulfite as methyl group donor (HPLC); format: biochemical, Aspergillus clavatus; conditions: after 20-hour incubation
Text: (§1) Dimethyl sulfite (Me2SO3) is used as an additive in some polymers to prevent oxidation. It is much less toxic than dimethyl sulfate and can be considered as a potential methyl group donor. Herein, the inventors performed SAH methylation with dimethyl sulfite (Figure 9).

TBU = experiment: as above; format: biochemical; conditions: after 20-hour incubation
Text: as §1

TPMT uma = experiment: as above; format: biochemical, Ustilago maydis; conditions: after 20-hour incubation
Text: as §1

monoamine oxidase = conditions: background statement; cited from earlier work
bra = experiment: TPMT panel screen: SAM production from SAH with methyl donor (HPLC); format: biochemical, Brassica rapa chinensis; conditions: 2 mM DMSa, 1 mM SAH, 10 µM TPMT, 50 mM phosphate buffer pH 8.0, 25°C; barely exceeds uncatalyzed background
Text: (§2) The inventors are not aware of any reports on SAM-dependent methyltransferases that transfer methyl groups from or to sulfates or sulfonates.^[18] […] To test this idea, the inventors assayed a panel of 13 distantly related TPMT homologs for the ability to produce SAM from SAH using DMSa, methyl methanesulfonate (MMSa), methyl toluenesulfonate (MeOTs) or methyl 4-nitrobenzenesulfonate (MeONs) as methyl donor. The proteins were produced in E. coli and purified following standard procedures . The activity of the enzymes was assayed in reactions containing 1 mM SAH, 50 mM phosphate buffer pH 8.0 and 2 mM of either methyl donor. The concentration of SAM after different incubation times (0.5- 24 h) was quantified by HPLC. […] In a nutshell, enzymes that have evolved to catalyze specific physiological reactions may have acquired - by chance - considerable activities for reactions they were never optimized for, while others - from the same enzyme family and with the same physiological function - may have not.

AtHMT = molecular target: T1, AtHMT (Arabidopsis thaliana, UniProt Q0WP12); experiment: Time-dependent methylation of SAH by HMT using dimethyl sulfate with or without sodium iodide (HPLC); format: biochemical; conditions: 1 mM SAH, 2 mM DMSa; efficient SAM production required 10 mM Nal
T1 construct: made in house; host or cells: E. coli Δmtn (DE3)
T1 sequence (Q0WP12 1-227): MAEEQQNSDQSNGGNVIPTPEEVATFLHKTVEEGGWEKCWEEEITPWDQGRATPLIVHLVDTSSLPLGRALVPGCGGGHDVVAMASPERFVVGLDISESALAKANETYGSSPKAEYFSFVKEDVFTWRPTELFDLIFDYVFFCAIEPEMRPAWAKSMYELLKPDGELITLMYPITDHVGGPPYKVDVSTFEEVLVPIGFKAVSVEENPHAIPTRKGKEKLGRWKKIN
Description: (§4) The given values are averages of three independent measurements. The associated error is less than 30 % of the average value. […] In addition, the reactions contained 50 mM sodium phosphate buffer (pH 8.0) and were incubated at 25 °C. The concentration of SAM was determined by HPLC. A) with 10 µM BxHMT; B) with 10 µM AtHMT. […] The concentration of SAM was determined by HPLC; B) Initial rates of these reactions were estimated from the slopes of linear-fit curves of the points at 1, 2 and 4 minutes.

mac = experiment: TPMT panel screen: SAM production from SAH with methyl donor (HPLC); format: biochemical, Methanosarcina Acetivorans; conditions: 2 mM DMSa, 1 mM SAH, 10 µM TPMT, 50 mM phosphate buffer pH 8.0, 25°C; barely exceeds uncatalyzed background
Text: as §2

dsq = experiment: as above; format: biochemical, Dichomitus squalens; conditions: 2 mM DMSa, 1 mM SAH, 10 µM TPMT, 50 mM phosphate buffer pH 8.0, 25°C; complete conversion within 0.5 h
Text: as §2

msm = experiment: as above; format: biochemical, Mycolicibacterium smegmatis; conditions: 2 mM DMSa, 1 mM SAH, 10 µM TPMT, 50 mM phosphate buffer pH 8.0, 25°C; barely exceeds uncatalyzed background
Text: as §2

dba = experiment: as above; format: biochemical, Dehalococcoidia bacterium; conditions: 2 mM DMSa, 1 mM SAH, 10 µM TPMT, 50 mM phosphate buffer pH 8.0, 25°C; barely exceeds uncatalyzed background
Text: as §2

nba = experiment: as above; format: biochemical, Nitrospinae bacterium; conditions: 2 mM DMSa, 1 mM SAH, 10 µM TPMT, 50 mM phosphate buffer pH 8.0, 25°C; barely exceeds uncatalyzed background
Text: as §2

bma = molecular target: T2, bma (Batis maritima, UniProt Q9ZSZ7); experiment: as above; format: biochemical; conditions: 2 mM DMSa, 1 mM SAH, 10 µM TPMT, 50 mM phosphate buffer pH 8.0, 25°C; barely exceeds uncatalyzed background
T2 construct: Leu-Glu-His6 (C); made in house; host or cells: E. coli Δmtn (DE3)
T2 sequence (Q9ZSZ7 1-230): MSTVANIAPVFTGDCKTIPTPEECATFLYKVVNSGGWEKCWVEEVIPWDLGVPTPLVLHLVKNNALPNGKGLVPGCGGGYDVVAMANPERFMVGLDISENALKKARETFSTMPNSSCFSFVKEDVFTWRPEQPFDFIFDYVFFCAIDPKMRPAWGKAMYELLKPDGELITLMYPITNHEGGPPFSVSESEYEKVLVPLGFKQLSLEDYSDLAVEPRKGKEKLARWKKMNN
Text: as §2

[1] = Stability test of methyl donors in phosphate buffer (1H NMR, hydrolysis and phosphorolysis); conditions: pH 8.4
Description: These solutions were monitored by ^1H NMR at time points between 0.5 to 24 hours to quantify the products of hydrolysis and phosphorolysis. The ^1H NMR signal peaks of all methyl species were integrated and the ratio of them was calculated. The percentage of methyl donor was plotted against time and the graph was fitted with exponential decay model to calculate the half-life of the methyl donor.

acl = experiment: TPMT panel screen: SAM production from SAH with methyl donor (HPLC); format: biochemical, Aspergillus clavatus; conditions: 2 mM DMSa, 1 mM SAH, 10 µM TPMT, 50 mM phosphate buffer pH 8.0, 25°C; complete conversion within 0.5 h
Text: as §2

BxHMT = experiment: Time-dependent methylation of SAH by HMT using dimethyl sulfate with or without sodium iodide (HPLC); format: biochemical, Paraburkholderia xenovorans; conditions: 1 mM SAH, 2 mM DMSa, 0.1, 1.0 or 10 mM Nal (same efficiency without Nal), 50 mM phosphate buffer pH 8, within two hours
Description: as §4

TPMT kal = experiment: TPMT-catalyzed SAH alkylation using ethylene sulfate as alkyl group donor (HPLC); format: biochemical, Kordia algicida
Text: (§3) Ethylene sulfate (C2H4SO4) is a two carbon-unit cyclic sulfate. The inventors also used ethylene sulfate to perform SAH alkylation (Figure 7).

physchem = format: physicochemical; conditions: buffer, pH 8
Description: Ethylene sulfate (C2H4SO4) is a two carbon-unit cyclic sulfate. The inventors also used ethylene sulfate to perform SAH alkylation (Figure 7). A new peak with retention time at 15.7 minutes could be detected by HPLC in the reactions with about half number of TPMTs, although the new peak has not been identified as the desired product. If the new peak is the target product, especially for TPMT kal, 37% of SAH was converted to SAM analog after 4-hour incubation. For TPMT CAK and ath_V140A, they also got over 20% yield of SAM analog. In my opinion, the inactivation of TPMT during the reaction was not the reason of relatively low yield of SAM analog. […] During the reaction, most of ethylene sulfate hydrolyzed so that there was not enough ethylene sulfate to alkylate SAH.

ath_V140A = molecular target: T3, ath_V140A (Arabidopsis thaliana, UniProt Q0WP12, V140A); experiment: TPMT-catalyzed SAH alkylation using ethylene sulfate as alkyl group donor (HPLC); format: biochemical; conditions: new HPLC peak not identified as the desired product
T3 construct: made in house; host or cells: E. coli Δmtn (DE3)
T3 sequence (Q0WP12 1-227 V140A): T1 sequence (Q0WP12 1-227) with V140A
Text: as §3

TPMT CAK = experiment: as above; format: biochemical; conditions: new HPLC peak not identified as the desired product
Text: as §3

AtHMT Val140 to Thr = molecular target: T4, AtHMT Val140 to Thr (Arabidopsis thaliana, UniProt Q0WP12, V140T); conditions: previous study; cited from earlier work
T4 sequence (Q0WP12 1-227 V140T): T1 sequence (Q0WP12 1-227) with V140T

AtHMTV140A = molecular target: T5, AtHMTV140A (Arabidopsis thaliana, UniProt Q0WP12, V140A); experiment: Time-dependent methylation of SAH with methyl iodide, initial rates, mutant versus AtHMT (HPLC); format: biochemical; conditions: 1 µM enzyme, 1 mM SAH, 2 mM Mel, 50 mM sodium phosphate buffer pH 8.0, 25 °C
T5 construct: made in house; host or cells: E. coli Δmtn (DE3)
T5 sequence (Q0WP12 1-227 V140A): T1 sequence (Q0WP12 1-227) with V140A

[2] = rats; cited from earlier work

COS(=O)OC [dimethyl sulfite, Dimethyl sulfite]
yield of SAM (TPMT acl): 14%
yield of SAM (TBU): 7%
yield of SAM (TPMT uma): 8%

C[C@H](NCc1ccc(OCc2cccc(F)c2)cc1)C(N)=O [safinamide]
increased potency by addition of a single methyl group (monoamine oxidase): 20 fold
increased selectivity by addition of a single methyl group (monoamine oxidase): ~1000 fold

COS(=O)(=O)OC [DMSa, dimethyl sulfate]
rate (bra): < 0.01 min⁻¹
acceptance of DMSa as substrate (AtHMT): not a direct substrate
rate (mac): < 0.01 min⁻¹
rate (dsq): > 3 turnover min^-1
rate (msm): < 0.01 min⁻¹
rate (dba): < 0.01 min⁻¹
rate (nba): < 0.01 min⁻¹
rate (bma): < 0.01 min⁻¹
half-life ([1]; buffer): 0.97 ± 0.05 h
half-life [1]: 0.95 ± 0.07 h
rate (acl): > 3 turnover min^-1
SAH converted to SAM (BxHMT): 60 - 70%

O=S1(=O)OCCO1 [ethylene sulfate, Ethylene sulfate]
yield of SAM analog (TPMT kal; 1 mM SAH, 1 mM ethylene sulfate added every half an hour, after 3-hour incubation): 60%
SAH converted to SAM analog (TPMT kal; ethylene sulfate as donor, after 4-hour incubation, new HPLC peak not identified as the desired product): 37%
half-life (physchem): 0.183 h
yield of SAM analog (ath_V140A): over 20%
yield of SAM analog (TPMT CAK): over 20%

COS(=O)(=O)c1ccc([N+](=O)[O-])cc1 [MeONs, methyl 4-nitrobenzenesulfonate]
half-life ([1]; buffer): 3 ± 0.1 h

COS(C)(=O)=O [MMSa, methyl methanesulfonate]
half-life ([1]; buffer): 34 ± 1 h
half-life [1]: 28 ± 4 h

CI [Mel, methyl iodide]
catalytic efficiency for Mel reduced (Val140 to Thr) (AtHMT Val140 to Thr): 6 fold
activity for Mel diminished (Val140 to Ala versus AtHMT) (AtHMTV140A): 7 fold
LD50 [2]: 76 mg/kg

COS(=O)(=O)c1ccc(C)cc1 [MeOTs, methyl 4-toluenesulfonate]
half-life ([1]; buffer): 26 ± 1 h
half-life [1]: 21 ± 3 h
